Measured values published in ChEMBL document CHEMBL5241120, “Insights into the medicinal chemistry of heterocycles integrated with a pyrazolo[1,5-a]pyrimidine scaffold” (RSC Med Chem, 2022).
Converted amounts (≈) assume the structure as drawn.

How the values were obtained:
Staphylococcus aureus [1] = assay: Antibacterial activity against Staphylococcus aureus assessed as zone of inhibition at 5 mg/ml; format: functional; details: read-out: IZ
Proteus vulgaris = assay: Antibacterial activity against Proteus vulgaris assessed as zone of inhibition at 5 mg/ml; format: functional; details: read-out: IZ
Escherichia coli [2] = assay: Antibacterial activity against Escherichia coli assessed as zone of inhibition at 5 mg/ml; format: functional; details: read-out: IZ
Bacillus subtilis [3] = assay: Antibacterial activity against Bacillus subtilis assessed as zone of inhibition at 5 mg/ml; format: functional; details: read-out: IZ
Streptococcus mutans = assay: Antibacterial activity against Streptococcus mutans assessed as zone of inhibition at 5 mg/ml; format: functional; details: read-out: IZ
Enterococcus faecalis = assay: Antibacterial activity against Enterococcus faecalis assessed as zone of inhibition at 5 mg/ml; format: functional; details: read-out: IZ
[4] = molecular target: T1, liver carboxylesterase (CES) (Sus scrofa, UniProt Q29550); assay: Inhibition of pig liver CES at 20 uM relative to control; format: tissue-based
T1 sequence (Q29550 whole entry): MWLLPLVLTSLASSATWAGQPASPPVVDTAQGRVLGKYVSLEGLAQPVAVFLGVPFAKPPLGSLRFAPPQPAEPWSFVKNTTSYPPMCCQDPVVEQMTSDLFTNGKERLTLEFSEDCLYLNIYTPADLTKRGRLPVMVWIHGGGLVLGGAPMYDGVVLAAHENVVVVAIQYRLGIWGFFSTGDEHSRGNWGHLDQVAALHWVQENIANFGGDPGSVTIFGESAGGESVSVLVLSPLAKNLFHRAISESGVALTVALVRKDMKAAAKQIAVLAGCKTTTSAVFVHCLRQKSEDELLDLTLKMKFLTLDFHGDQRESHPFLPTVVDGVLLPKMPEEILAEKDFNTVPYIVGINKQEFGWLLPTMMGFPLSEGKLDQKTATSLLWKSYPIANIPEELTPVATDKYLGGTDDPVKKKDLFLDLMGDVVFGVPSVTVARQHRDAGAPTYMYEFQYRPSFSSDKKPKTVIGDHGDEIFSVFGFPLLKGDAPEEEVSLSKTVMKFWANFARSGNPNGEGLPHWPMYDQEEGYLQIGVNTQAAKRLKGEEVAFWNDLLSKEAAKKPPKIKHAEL

Androgen receptor = molecular target: T2, Androgen receptor (Homo sapiens, UniProt P10275); assay: Antagonist activity at androgen receptor (unknown origin)
T2 sequence (P10275 whole entry): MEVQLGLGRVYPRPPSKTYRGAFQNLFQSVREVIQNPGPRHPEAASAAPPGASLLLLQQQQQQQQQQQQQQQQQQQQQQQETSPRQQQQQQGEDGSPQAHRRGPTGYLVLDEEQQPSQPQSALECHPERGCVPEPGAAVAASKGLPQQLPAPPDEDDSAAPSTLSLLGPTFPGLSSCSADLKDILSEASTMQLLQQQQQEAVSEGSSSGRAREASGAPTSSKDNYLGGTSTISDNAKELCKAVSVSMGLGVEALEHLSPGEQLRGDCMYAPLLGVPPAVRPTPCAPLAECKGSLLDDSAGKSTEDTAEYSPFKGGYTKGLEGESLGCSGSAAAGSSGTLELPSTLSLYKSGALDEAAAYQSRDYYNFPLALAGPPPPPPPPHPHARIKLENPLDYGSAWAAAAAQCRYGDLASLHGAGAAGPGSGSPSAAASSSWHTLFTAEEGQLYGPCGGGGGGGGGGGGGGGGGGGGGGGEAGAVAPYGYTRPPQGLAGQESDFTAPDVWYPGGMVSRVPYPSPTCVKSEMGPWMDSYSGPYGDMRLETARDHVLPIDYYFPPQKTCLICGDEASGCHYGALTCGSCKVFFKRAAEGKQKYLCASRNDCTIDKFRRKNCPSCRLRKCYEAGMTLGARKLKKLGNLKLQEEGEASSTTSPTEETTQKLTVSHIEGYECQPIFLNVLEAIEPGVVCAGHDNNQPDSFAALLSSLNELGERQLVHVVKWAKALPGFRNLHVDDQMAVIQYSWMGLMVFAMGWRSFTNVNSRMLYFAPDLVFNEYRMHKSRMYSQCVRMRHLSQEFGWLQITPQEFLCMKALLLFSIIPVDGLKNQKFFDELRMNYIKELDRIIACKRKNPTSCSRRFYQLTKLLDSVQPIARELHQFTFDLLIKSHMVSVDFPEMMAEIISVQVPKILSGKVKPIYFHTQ

[5] = Inhibition of Hepatitis C virus NS3 protease; format: functional, Hepacivirus hominis
Candida albicans [6] = assay: Antifungal activity against Candida albicans; format: functional
[7] = molecular target: T3, Prostaglandin G/H synthase 1 (Ovis aries, UniProt P05979); assay: Inhibition of ovine COX-1
T3 sequence (P05979 whole entry): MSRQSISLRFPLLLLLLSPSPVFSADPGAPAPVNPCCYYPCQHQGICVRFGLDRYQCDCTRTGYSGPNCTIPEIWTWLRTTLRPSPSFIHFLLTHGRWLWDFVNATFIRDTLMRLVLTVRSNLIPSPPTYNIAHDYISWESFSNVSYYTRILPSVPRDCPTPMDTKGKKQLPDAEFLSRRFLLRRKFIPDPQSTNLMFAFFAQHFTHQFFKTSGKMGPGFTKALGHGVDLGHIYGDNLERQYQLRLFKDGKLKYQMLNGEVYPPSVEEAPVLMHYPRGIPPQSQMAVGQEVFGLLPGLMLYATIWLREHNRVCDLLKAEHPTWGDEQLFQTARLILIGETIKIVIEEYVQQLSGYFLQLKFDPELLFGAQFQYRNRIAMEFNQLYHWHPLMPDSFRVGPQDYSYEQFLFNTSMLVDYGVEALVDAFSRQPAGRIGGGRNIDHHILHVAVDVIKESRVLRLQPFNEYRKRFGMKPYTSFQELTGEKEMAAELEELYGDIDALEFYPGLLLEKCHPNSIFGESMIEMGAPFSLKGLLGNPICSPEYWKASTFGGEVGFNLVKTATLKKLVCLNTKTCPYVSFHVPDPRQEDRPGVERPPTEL

[8] = Inhibition of soybean 15-LOX; parameters: species or system Glycine max
Rattus norvegicus = assay: Antiinflammatory activity in rat assessed as inhibition of carrageenan induced paw edema at 50 mg/kg; format: functional; parameters: scale not given: the % may be the effect or the level left
[9] = Antioxidant activity assessed as ABTS radical scavenging activity; format: functional
Mus musculus = assay: Antiinflammatory activity in mouse assessed as inhibition of paw edema after 24 hrs; format: functional; parameters: scale not given: the % may be the effect or the level left
CHO-K1 = assay: Cytotoxicity against CHO-K1 cells by MTT assay; format: toxicity, cell-based, Cricetulus griseus; parameters: concentration or dose not given beside the values; details: chinese hamster
MCF7 = assay: Cytotoxicity against human MCF7 cells by MTT assay; format: functional, cell-based
HCT-116 = assay: Cytotoxicity against human HCT-116 cells by MTT assay; format: functional, cell-based
HepG2 = assay: Cytotoxicity against human HepG2 cells by MTT assay; format: functional, cell-based
Salmonella enterica = assay: Antibacterial activity against Salmonella enterica assessed as zone of inhibition; format: functional
Escherichia coli [10] = assay: Antibacterial activity against Escherichia coli assessed as zone of inhibition; format: functional
Staphylococcus aureus [11] = assay: Antibacterial activity against Staphylococcus aureus assessed as zone of inhibition; format: functional
Bacillus subtilis [12] = assay: Antibacterial activity against Bacillus subtilis assessed as zone of inhibition; format: functional
Bacillus subtilis [13] = assay: Antibacterial activity against Bacillus subtilis; format: functional
Aspergillus niger = assay: Antifungal activity against Aspergillus niger; format: functional
Candida albicans [14] = assay: Antifungal activity against Candida albicans assessed as zone of inhibition; format: functional
Escherichia coli [15] = assay: Antibacterial activity against Escherichia coli; format: functional
Aspergillus clavatus = assay: Antifungal activity against Aspergillus clavatus; format: functional

Nc1nc2c(/N=N/c3ccc(C(F)(F)F)cc3)c(N)nn2c(N)c1/N=N/c1ccc(F)cc1
zone of inhibition at 5000 µg/mL (Staphylococcus aureus [1]): 10 mm

Cc1cc(C)nc(NS(=O)(=O)c2ccc(/N=N/c3c(N)nc4c(/N=N/c5ccc(F)cc5)c(N)nn4c3N)cc2)n1
zone of inhibition at 5000 µg/mL (Proteus vulgaris): 9 mm | zone of inhibition at 5000 µg/mL (Escherichia coli [2]): 9 mm | zone of inhibition at 5000 µg/mL (Bacillus subtilis [3]): 9 mm | zone of inhibition at 5000 µg/mL (Streptococcus mutans): 9 mm | zone of inhibition at 5000 µg/mL (Staphylococcus aureus [1]): 9 mm | zone of inhibition at 5000 µg/mL (Enterococcus faecalis): 9 mm

O=[N+]([O-])c1ccc(OP(=O)(O)Oc2ccc([N+](=O)[O-])cc2)cc1
inhibition at 20 µM [4]: 1.8%

Cc1ccc(C2CC(C(F)(F)F)n3nc(C(N)=O)cc3N2)cc1 (configuration not stated)
IC50 (Androgen receptor): 45.8 µM

CC(C)OC(=O)[C@H](C)N[P@](=O)(OC[C@H]1O[C@@H](n2ccc(=O)[nH]c2=O)[C@](C)(F)[C@@H]1O)Oc1ccccc1 [SOFOSBUVIR]
IC50 [5]: 3.2 mg/L (≈ 6.04 µM)

COc1ccc(Nc2nn3c(N)c(C#N)c(-c4ccc(F)cc4)nc3c2C(N)=O)cc1
MIC (Candida albicans [6]): 15.6 mg/L (≈ 37.4 µM)

CCOc1cc(C)nc2c(C#N)c(Nc3cc(OC)ccn3)nn12
IC50 [7]: 7.9 µM | IC50 [8]: 8.4 µM | Activity (Rattus norvegicus): 46%

COc1ccnc(Nc2nn3c(C)cc(C)nc3c2C#N)c1
IC50 [7]: 8.5 µM | IC50 [8]: 5.6 µM | Activity (Rattus norvegicus): 46%

Cc1c(C)c2c(c(C)c1O)CCC(C)(C(=O)O)O2 (configuration not stated)
Activity [9]: 1 µM

NC(=O)c1c(Nc2ccccc2)nn2c(-c3ccccc3)cc(-c3ccccc3)nc12
MIC (Candida albicans [6]): 15.6 mg/L (≈ 38.5 µM)

COc1ccc(-c2cnc3c(C(=O)Nc4c(C)n(C)n(-c5ccccc5)c4=O)cnn3c2N)cc1
Activity (Mus musculus): 25% | Activity (CHO-K1): 72.96%

Nc1nc2c(/N=N/c3ccc(C(F)(F)F)cc3)c(N)nn2c(N)c1/N=N/c1ccc(C(F)(F)F)cc1
IC50 (MCF7): 0.3 mg/L (≈ 0.59 µM) | IC50 (HCT-116): 0.4 mg/L (≈ 0.787 µM) | zone of inhibition at 5000 µg/mL (Bacillus subtilis [3]): 8 mm | IC50 (HepG2): 0.6 mg/L (≈ 1.18 µM)

COC(=O)c1cnc2c(C(=O)Nc3c(C)n(C)n(-c4ccccc4)c3=O)cnn2c1C
Activity (CHO-K1): 49.24%

Cc1c(NC(=O)c2cnn3cc(-c4ccccc4)cnc23)c(=O)n(-c2ccccc2)n1C
Activity (CHO-K1): 97.1%

CC1(C2CC(C(F)(F)F)n3nc(C(=O)O)cc3N2)CC1 (configuration not stated)
IC50 (Androgen receptor): 214 µM

CC1(C)S[C@@H]2[C@H](NC(=O)[C@H](N)c3ccccc3)C(=O)N2[C@H]1C(=O)O [AMPICILLIN]
inhibition zone (IZ) (Salmonella enterica): 23 mm | inhibition zone (IZ) (Escherichia coli [10]): 25 mm | inhibition zone (IZ) (Staphylococcus aureus [11]): 21 mm | inhibition zone (IZ) (Bacillus subtilis [12]): 26 mm

CCOc1cc(N)n2nc(Nc3cc(OC)ccn3)c(C#N)c2n1
IC50 [7]: 8.5 µM | IC50 [8]: 8.2 µM | Activity (Rattus norvegicus): 46%

CC(=O)c1cnc2c(C(=O)Nc3c(C)n(C)n(-c4ccccc4)c3=O)cnn2c1C
Activity (Mus musculus): 16.57% | Activity (CHO-K1): 72.46%

Cc1cc(NN2C(=O)C3CCCCC3C2=O)n2ncc(C#N)c2n1 (configuration not stated)
MIC (Bacillus subtilis [13]): 10 mg/L (≈ 30.8 µM) | MIC (Aspergillus niger): 10 mg/L (≈ 30.8 µM) | inhibition zone (IZ) (Candida albicans [14]): 19.1 mm | MIC (Escherichia coli [15]): 10 mg/L (≈ 30.8 µM) | MIC (Aspergillus clavatus): 10 mg/L (≈ 30.8 µM)
